47 molecules from paper PMC11259170, “Small-molecule probe for IBD risk variant GPR65 I231L alters cytokine signaling networks through positive allosteric modulation” (Science Advances, 2024) can be followed below.

The term pEC50 denotes the EC50 on a negative log10 scale, so that one unit is a factor of ten.

Experiment [1] has as its target T1, hGPR65 (Homo sapiens, UniProt Q8IYL9).
T1 construct: expressed in transfected cells; host or cells: HeLa (ATCC CCL-2), lentiviral transduction, pLX317
The experiment in a line: cAMP detection (Lance Ultra), GPR65 KO HeLa reconstituted with hGPR65; 21K screen dose confirmation. It counts as cell-based. As to conditions: HeLa GPR65 KO + hGPR65, pH 7.1, 30 min, normalized to DMSO and 100 μM forskolin; read-out: WT EC50. Here is the method:
(§1) The Lance Ultra cAMP Kit (PerkinElmer, TRF0264) was used for cAMP detection, and included the following reagents: ULight anti-cAMP antibody, Eu-cAMP tracer, 7.5% BSA Stabilizer solution, and cAMP detection buffer. Stimulation buffer was prepared as described by the kit manufacturer as follows: Hanks buffered saline solution (HBSS, Life Technologies, 14025-126) containing 0.5 mM IBMX (3-isobutyl-1-methylxanthine, Sigma-Aldrich, I7018) and buffered with 1 M Hepes (15630-080). Stimulation buffer was then adjusted to pH 7.1 using 12 N HCl. HeLa cells were lifted using Versene and then suspended at 2.5 × 10^5 cells/ml in stimulation buffer. Cells were then plated at 20 μl per well (5000 cells per well) in white, opaque OptiPlate 384-well MicroPlates (PerkinElmer, 6007299) using a Thermo Fisher Scientific Combi liquid dispenser. Compounds, stored at 5 mM in DMSO for the primary screen, or in a range of concentrations from 39 μM to 20 mM for dose curves, were transferred by the CyBio CyBi-Well Vario pin transfer tool with 100-nl pins (V&P FP1NS50H, 50-nl slot, 0.457-mm diameter, hydrophobic coated), into each assay well, 100 nl per well for a final assay concentration of 25 μM for the primary screen, or 195 nM to 100 μM for dose curves. Assay plates were then incubated at RT for 30 min. Eu-cAMP tracer was diluted 1:33 into detection buffer and the final solution then distributed into assay wells, 5 μl per well. ULight anti-cAMP antibody was diluted 1:100 into detection buffer, then distributed into assay wells, also 5 μl per well. Assay plates were then incubated at RT in the dark for 1 hour. Eu-cAMP tracer and Förster resonance energy transfer (FRET) emissions were then read using a PerkinElmer EnVision Multimode plate reader (ENVISION21040010), exciting each well at 320 nm [UV2 (TRF) 320 filter] and reading emissions at 615 nm (Europium 615 filter) and 665 nm (APC665 filter). Data analysis was performed using Genedata Screener and GraphPad Prism.
(§2) HeLa KO cell lines were generated using the px330 plasmid CRISPR system as previously described ([18]). Briefly, HeLa cells were transfected with a Cas9 vector containing a gene-specific single-guide RNA to target the GPR65 coding exon. Forty-eight to 72 hours after transfection, single clones were obtained through limiting dilution and then sequenced to validate the KO. Reconstituted cell lines were produced by transducing KO cells with empty lentivirus or lentivirus containing hGPR65 or mGPR65. After 48 hours, cells were treated with puromycin (3 μg/ml; InvivoGen, ant-pr-1) and resistant cells were used in experiments.

In experiment [2] the test system is GPR65 KO HeLa cells + pLX empty vector. The experiment can be described thus: cAMP detection, GPR65 KO HeLa + empty pLX vector (null control). It counts as cell-based, human. Conditions: HeLa GPR65 KO + pLX, pH 7.1, 30 min, normalized to DMSO and 100 μM forskolin. As to the method: as §1, §2

pEC50: −log10 of the molar value.

T1 sequence (Q8IYL9 whole entry): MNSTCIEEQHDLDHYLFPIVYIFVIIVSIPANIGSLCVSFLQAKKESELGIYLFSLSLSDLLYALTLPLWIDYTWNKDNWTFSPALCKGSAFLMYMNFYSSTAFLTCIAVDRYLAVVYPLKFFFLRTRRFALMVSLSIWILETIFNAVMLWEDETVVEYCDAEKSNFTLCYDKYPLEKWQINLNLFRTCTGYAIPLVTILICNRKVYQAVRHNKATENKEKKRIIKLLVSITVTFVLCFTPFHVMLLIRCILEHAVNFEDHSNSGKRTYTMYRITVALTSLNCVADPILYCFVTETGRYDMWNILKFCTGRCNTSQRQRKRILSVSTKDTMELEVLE

Turning to `Cn1cc(C(=O)c2ccc(F)cc2)c2ccnc(Cl)c21` [BRD-K96864761-001-02-4], the values for the pEC50 in experiment [1] and in experiment [2] were 4.32 and 4.35, respectively.
In the same order, the values of `COC(=O)Nc1nc2ccc(-c3n[nH]c(=O)c4ccccc34)cc2[nH]1` [BRD-K25806464-001-09-6] are > 5.00 and > 5.00.
Take `COC(=O)c1cc2c(s1)-c1cc(F)ccc1OC2` [BRD-K56384677-001-09-9]: the pEC50 was 4.05 in experiment [1] and 4.03 in experiment [2].
Regarding `Cn1ccc2c(-c3cccc(=O)[nH]3)ccnc21` [BRD-K33217544-001-03-3], the pEC50 in experiment [1] is 4.04; in experiment [2] it was 4.05.
For `Cc1nc(C2CCCNC2)cc(N(C)Cc2cccc3cnccc23)n1` (stereo not shown) [BRD-A78843635-001-02-6], the pEC50 in experiment [1] was < 4.00; in experiment [2], 4.02.
As for `CC(=O)N1CCCC(CCCc2ccncc2)(C(=O)O)C1` (stereo not shown) [BRD-A44875014-001-02-0], the pEC50 in experiment [1] is 4.88; in experiment [2] it was 4.83.
`CS(=O)(=O)N1CCN(c2ccnc3cc(Cl)ccc23)CC1` [BRD-K06900104-001-09-6]: the pEC50 was 4.56 in experiment [1] and 4.64 in experiment [2].
The matching figures for `Nc1ccc2c(C(F)(F)F)cc(=O)oc2c1` [BRD-K20841137-001-08-7]: < 4.00 and < 4.00.
The matching figures for `O=C(O)C1CCN(c2ncnc3ccccc23)CC1` [BRD-K45393828-001-02-7]: 4.26 and 4.40.
Take `O=C(c1ccco1)N1CCN(c2ccnc3cc(Cl)ccc23)CC1` [BRD-K27679143-001-08-6]: the pEC50 was 4.74 in experiment [1] and 4.81 in experiment [2].
Consider `CC(Sc1nc2ncnc(N)c2[nH]1)C(=O)O` (stereo not shown) [BRD-A18106607-001-02-5], for which the pEC50 was 5.22 in experiment [1] and 5.19 in experiment [2].
`O=S1(=O)CCC(Cn2cc(-c3ccnc4ccccc34)nn2)C1` (stereo not shown) [BRD-A69528226-001-02-9]: the pEC50 was 4.70 in experiment [1] and 4.77 in experiment [2].
As for `CCN1CCCc2cc(-c3cncn3C(C)CN3CCOCC3)ccc21` (stereo not shown) [BRD-A40378740-001-02-0], the pEC50 in experiment [1] and in experiment [2] was < 4.00 each time.
In the case of `CCCOc1cc2c(cc1CN(C)Cc1cc(=O)[nH]c3ccccc13)OCO2` [BRD-K37392365-001-02-8], the pEC50 in experiment [1] and in experiment [2] was < 4.00 in each case.
Turning to `CN(Cc1ccc2ncccc2c1)C(=O)[C@@H]1C[C@H](N)CN1C` [BRD-K56675411-001-02-6], the figures for the pEC50 in experiment [1] and in experiment [2] were 4.15 and 4.24, respectively.
The matching figures for `CCN1C[C@@H](COC)[C@]2(CCN(C(=O)N3CCCC3)C2)C1` [BRD-K23021624-001-01-8]: < 4.00 and < 4.00.
Regarding `COc1cc(Br)c(-c2cc3ccccc3oc2=O)cc1OC` [BRD-K22294093-001-02-2], the pEC50 in experiment [1] and in experiment [2] was > 5.00 throughout.
For `COc1ccc(NC(=O)CSc2nc3ccc(C)cc3cc2C#N)cc1` [BRD-K45250069-001-02-7], the pEC50 in experiment [1] and in experiment [2] was < 4.00 each time.
As for `CC(NC(=O)c1ccc2ncccc2c1)c1cc(=O)[nH]c(N2CCN(C)CC2)n1` (stereo not shown) [BRD-A49179268-001-02-5], the pEC50 is 4.08 in experiment [1] and 4.17 in experiment [2].
As to `O=C1CC(N2CCN(c3ncccn3)CC2)C(=O)N1c1ccccc1` (stereo not shown) [BRD-A87117975-001-02-2], the pEC50 in experiment [1] was 4.15; in experiment [2] it was 4.26.
`O=C(O)CCSCCc1ccncc1` [BRD-K06534048-001-02-7]: the pEC50 in experiment [1] is 4.42; in experiment [2], 4.53.
Turning to `O=c1c(-c2ccccc2)nnc2sc(-c3ccc4c(c3)OCCO4)nn12` [BRD-K26812102-001-02-6], the pEC50 in experiment [1] and in experiment [2] was < 4.00 each time.
`COc1ccc(S(=O)(=O)N2C[C@@H](N)[C@H](c3cn(C)c4cnccc34)C2)cc1` [BRD-K00063734-001-02-2]: the results for the pEC50 in experiment [1] and in experiment [2] were 4.13 and 4.20, respectively.
`CN1CCN(c2ccnc3ccccc23)CC1C(=O)O` (stereo not shown) [BRD-A45312230-001-02-1]: the pEC50 in experiment [1] was 5.92; in experiment [2] it was 5.89.
The matching figures for `Cc1cc(C)n(CC(O)CN(Cc2ccco2)Cc2cccc3ncccc23)n1` (stereo not shown) [BRD-A63170499-001-02-6]: < 4.00 and < 4.00.
The matching figures for `COc1ccc(C(=O)c2cn(CC(=O)Nc3nc4c(s3)CCCC4)c3cnccc23)cc1` [BRD-K74442183-001-02-5]: > 4.52 and > 4.52.
Regarding `COc1ccc(Nc2nnc(-c3ccc(C(N)=O)cc3)c3ccccc23)cc1` [BRD-K46612369-001-11-5], the pEC50 in experiment [1] and in experiment [2] was < 4.00 in each case.
In the case of `Cc1cnc(N)c(C(=O)C2CCN(C(=O)c3cnc(C)nc3C)CC2)c1` [BRD-K07158347-001-02-2], the pEC50 in experiment [1] is 4.74; in experiment [2], 4.77.
In the same order, the values of `O=C(O)c1nccnc1C(=O)N1CCCN(c2c(Cl)cncc2Cl)CC1` [BRD-K53955368-001-02-8] are < 4.00 and < 4.00.
On to `N#Cc1cnc(SCc2cc(=O)[nH]c3ccccc23)nc1N` [BRD-K39252032-001-02-5], for which the pEC50 in experiment [1] was < 4.00; in experiment [2], 4.17.
In the case of `O=C(CN1CCC(c2ccncc2)CC1)NCc1cccs1` [BRD-K63268990-001-02-0], the pEC50 in experiment [1] and in experiment [2] was < 4.00 throughout.
As to `O=c1[nH]c2ccccc2c2oc(-c3ccccc3)nc12` [BRD-K66733191-001-02-7], the pEC50 in experiment [1] was 4.04; in experiment [2] it was 4.15.
In the same order, the values of `Cn1c(=O)n(C)c2cc(NC(=O)CSc3ncc(C#N)c(N)n3)ccc21` [BRD-K40764399-001-02-3] are < 4.00 and < 4.00.
The matching figures for `O=C(c1ccc2nc[nH]c2c1)N1CCC(CCOc2ccccc2)(C(=O)O)CC1` [BRD-K25972060-001-03-7]: 5.34 and 5.31.
Consider `Cc1cnccc1CN1CC(C(=O)O)CC1=O` (stereo not shown) [BRD-A19095755-001-02-9], for which the pEC50 in experiment [1] was 4.70; in experiment [2], 4.77.
Regarding `CCc1cc(CC)c2sc3ccccc3c(=O)c2c1` [BRD-K51520769-001-02-7], the pEC50 in experiment [1] and in experiment [2] was < 4.00 each time.
On to `CN(C)CCOC(=O)C1CC2=C(CCCC2(C)C)CC1C(=O)O` (stereo not shown) [BRD-A91973386-001-02-5], for which the pEC50 in experiment [1] is 4.22; in experiment [2] it was 4.15.
The matching figures for `O=C(c1cc2c([nH]c1=O)CCC2)N1CCN(c2ccnc3cc(Cl)ccc23)CC1` [BRD-K91175373-001-02-0]: 4.70 and 4.77.
Take `NC(=O)C1CCN(C(=O)CN2CCN(c3ccnc4cc(Cl)ccc34)CC2)CC1` [BRD-K56344229-001-02-1]: the pEC50 in experiment [1] was 4.81; in experiment [2], 4.90.
In the same order, the values of `Cn1ccc2c(-c3ccc(C(=O)N4CCCC4)cn3)ccnc21` [BRD-K29607656-001-02-7] are < 4.00 and < 4.00.
The matching figures for `Nc1cccnc1Sc1nc2cccnc2s1` [BRD-K10062067-001-02-9]: < 4.00 and < 4.00.
For `CCCCC(CC)C(=O)Oc1ccc2c(c1)oc(=O)c1ccccc12` (stereo not shown) [BRD-A19872532-001-02-1], the pEC50 in experiment [1] and in experiment [2] was < 4.00 each time.
As for `O=C(CN1CCC(c2ccncc2)CC1)N1CCOCC1` [BRD-K33295678-001-02-9], the pEC50 in experiment [1] and in experiment [2] was < 4.00 in each case.
Take `Clc1ccc2c(N3CCCC4(CCNC4)C3)ccnc2c1` (stereo not shown) [BRD-A50085437-001-02-6]: the pEC50 in experiment [1] was 4.58; in experiment [2], 4.47.
For `O=C(Cn1nnc(-c2ccccc2NC(=O)c2ccccc2)n1)NC1CCCCC1` [BRD-K79778627-001-02-1], the pEC50 in experiment [1] was < 4.00; in experiment [2] it was 4.13.
The matching figures for `O=C(Nc1cccc2nsnc12)c1sc2ccccc2c1Cl` [BRD-K76966415-001-02-1]: > 4.52 and > 4.52.
On to `Cc1cc2c(cc1-c1cncn1CCN(C)C1CCCC1)n(C)c(=O)n2C` [BRD-K91081402-001-02-5], for which the pEC50 in experiment [1] and in experiment [2] was < 4.00 each time.
